The source of these data is US6979686B1, “Substituted pyrazoles as p38 kinase inhibitors” (Pharmacia Corporation, priority 2001, dated 2005).

Structures are written as SMILES. Where only a bound is given, the exact number is not on record here.

T1 sequence (Q16539 whole entry): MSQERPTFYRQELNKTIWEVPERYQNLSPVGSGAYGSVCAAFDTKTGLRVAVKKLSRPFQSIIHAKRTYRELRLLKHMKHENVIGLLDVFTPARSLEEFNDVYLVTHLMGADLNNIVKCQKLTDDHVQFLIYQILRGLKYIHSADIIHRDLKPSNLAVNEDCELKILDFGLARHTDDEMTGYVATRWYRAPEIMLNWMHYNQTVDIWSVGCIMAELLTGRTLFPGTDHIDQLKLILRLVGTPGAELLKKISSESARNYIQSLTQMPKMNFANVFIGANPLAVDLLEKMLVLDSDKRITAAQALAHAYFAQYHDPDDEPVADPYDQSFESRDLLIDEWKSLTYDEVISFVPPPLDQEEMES

The first assay concerns the target T1, human p38 kinase alpha (Homo sapiens, UniProt Q16539).
T1 construct: GST (N, cleaved yes); made in house; host or cells: E. coli DH10B
Put plainly: p38 kinase in vitro assay, phosphorylation of biotinylated PHAS-I with 32P-ATP. Conditions: @ 1.0 uM. It is filed as biochemical.
Turning to `COc1ccc(S(=O)(=O)NCCc2[nH]nc(-c3ccc(F)cc3)c2-c2ccncc2)cc1OC` [Example B-1028], the “P38 alpha kinase % inhib @ conc. (uM)” value was 70.0% @.
`O=S(=O)(NCCCc1[nH]nc(-c2ccc(F)cc2)c1-c1ccncc1)C(F)(F)F` [Example B-1196]: the “P38 alpha kinase % inhib @ conc. (uM)” value was 74.0% @.
Still for that read-out and setting: with `CCCCS(=O)(=O)NCCc1[nH]nc(-c2ccc(F)cc2)c1-c1ccncc1` [Example B-1022] the figure was 84.0% @; with `CC(=O)OCC(=O)NCCc1[nH]nc(-c2ccc(F)cc2)c1-c1ccncc1` [Example B-0981], 62.0% @; with `O=C(NCCc1[nH]nc(-c2ccc(F)cc2)c1-c1ccncc1)Nc1ccccc1F` [Example B-1038], 57.0% @.
Still for that read-out and setting: with `Cc1ccc(S(=O)(=O)NC(Cc2ccccc2)C(=O)NCCc2[nH]nc(-c3ccc(F)cc3)c2-c2ccncc2)cc1` (stereo not drawn) [Example B-1011] the figure was 72.0% 2; with `O=C(NCCCc1[nH]nc(-c2ccc(F)cc2)c1-c1ccncc1)c1ccccc1` [Example B-1180], 78.0% @.
In the case of `Cc1cccc(C)c1NC(=O)NCCCc1[nH]nc(-c2ccc(F)cc2)c1-c1ccncc1` [Example B-1216], the “P38 alpha kinase % inhib @ conc.” value was 88.0% @.
On the same count and under the same terms, the same measure for `CNC(=O)NCCCc1[nH]nc(-c2ccc(F)cc2)c1-c1ccncc1` [Example B-1213]: 84.0% @.

Staying with this assay, now noted: @ 1.0 uM; read-out: P38 alpha kinase % inhib @ conc.
For `CCC(Oc1ccccc1)C(=O)NCc1[nH]nc(-c2ccc(F)cc2)c1-c1ccncc1` (stereo not drawn) [Example B-0047], the inhibition at 1 µM was found to be 94%.

The same assay, now with this note: @ 10.0 uM.
In the case of `COC(=O)[C@H](CC(C)C)NC(=O)Cn1nc(-c2ccc(F)cc2)c(-c2ccncc2)c1C` [Example B-2364], the “P38 alpha kinase % inhib @ conc.” value is 47.0% @.
On the same count and under the same terms, the same measure for `CCN(Cc1c(F)cccc1Cl)C(=O)Cn1nc(-c2ccc(F)cc2)c(-c2ccncc2)c1C` [Example B-2367]: 46.0% @.
Regarding `Cc1cccc(NC(=O)Cn2nc(-c3ccc(F)cc3)c(-c3ccncc3)c2C)c1` [Example B-2424], the “P38 alpha kinase IC50, uM or % inhib @ conc. (uM): % inhib” value (shortened to “P38 alpha kinase IC50 … % inhib”) was found to be 86.0% @.
In the case of `CCOC(=O)CC(NC(=O)Cn1nc(-c2ccc(F)cc2)c(-c2ccncc2)c1C)C(=O)OCC` (stereo not drawn) [Example B-2352], the “P38 alpha kinase % inhib @ conc.” value is given as 37.0% @.
For `COCCN(C)C(=O)Cn1nc(-c2ccc(F)cc2)c(-c2ccncc2)c1C` [Example B-2374], the “P38 alpha kinase % inhib @ conc.” value was found to be 35.0% @.
As for `Cc1c(-c2ccncc2)c(-c2ccc(F)cc2)nn1CC(=O)Nc1ccc(OCc2ccccc2)cc1` [Example B-2437], the “P38 alpha kinase IC50 … % inhib” value amounted to 82.0% @.
Turning to `Cc1c(-c2ccncc2)c(-c2ccc(F)cc2)nn1CC(=O)NC1CCCc2ccccc21` (stereo not drawn) [Example B-2326], the “P38 alpha kinase % inhib @ conc.” value was 76.0% @.
As to `Cc1c(-c2ccncc2)c(-c2ccc(F)cc2)nn1CC(=O)NCC(=O)Nc1ccccc1` [Example B-2441], the “P38 alpha kinase IC50 … % inhib” value is given as 86.0% @.
The same measure, in the same setting: the same measure for `Cc1c(-c2ccncc2)c(-c2ccc(F)cc2)nn1CC(=O)Nc1ccccc1C(F)(F)F` [Example B-2419]: 86.0% @.

Staying with this assay, now noted: Table 8; 1% DMSO; read-out: p38α Kinase Assay IC50.
In the case of `CN1CCN(Cc2n[nH]c(-c3ccc(F)cc3)c2-c2ccncc2)CC1` [A-313, Step 3, 1-[[5-(4-fluorophenyl)-4-(4-pyridinyl)-1H-pyrazol-3-yl]methyl]-4-methylpiperazine], the IC50 was found to be 36 nM.
With `O=C(c1n[nH]c(-c2ccc(F)cc2)c1-c1ccncc1)N1CCNCC1` [A-314, Step 1, 1-[[5-(4-fluorophenyl)-4-(4-pyridinyl)-1H-pyrazol-3-yl]carbonyl]piperazine, monhydrate], the IC50 is 850 nM.

The assay is the same for the next values; noted with them: in vitro P38-alpha kinase inhibition; read-out: P38 alpha kinase IC50.
As to `CCCCS(=O)(=O)NC(C)c1[nH]nc(-c2ccc(F)cc2)c1-c1ccncc1` (stereo not drawn) [Example B-0571], the IC50 was 380 nM.
With `O=C(NCCc1[nH]nc(-c2ccc(F)cc2)c1-c1ccncc1)c1cccc(Cl)c1` [Example B-1153], the IC50 stood at 2220 nM.
Still for that read-out and setting: the same measure for `O=C(Cc1cccs1)NC(Cc1ccccc1)c1[nH]nc(-c2ccc(F)cc2)c1-c1ccncc1` (stereo not drawn) [Example B-0745]: 6000 nM; for `CN(C)C(=O)NC(Cc1ccccc1)c1[nH]nc(-c2ccc(F)cc2)c1-c1ccncc1` (stereo not drawn) [Example B-0774]: 1500 nM.
As for `CC(=O)Nc1nc(C)c(S(=O)(=O)NCCc2[nH]nc(-c3ccc(F)cc3)c2-c2ccncc2)s1` [Example B-1058], the IC50 came out at 660 nM.
Still for that read-out and setting: the same measure for `O=C(NCCc1[nH]nc(-c2ccc(F)cc2)c1-c1ccncc1)c1cccc2ccccc12` [Example B-1128]: 2550 nM; for `Cc1cccc(C)c1NC(=O)NC(Cc1ccccc1)c1[nH]nc(-c2ccc(F)cc2)c1-c1ccncc1` (stereo not drawn) [Example B-0778]: 51000 nM; for `CNC(=O)CCC(NC(=O)c1ccc(F)cc1)c1[nH]nc(-c2ccc(F)cc2)c1-c1ccncc1` (stereo not drawn) [Example B-0862]: 2150 nM.
Still for that read-out and setting: the same measure for `O=S(=O)(NCCc1[nH]nc(-c2ccc(F)cc2)c1-c1ccncc1)c1cc(Cl)ccc1Cl` [Example B-1066]: less than 100 nM.
`O=S(=O)(NCCc1[nH]nc(-c2ccc(F)cc2)c1-c1ccncc1)c1ccc(F)cc1Cl` [Example B-1077]: the 50% inhibitory concentration (IC50) is less than 100 nM.
The same measure, in the same setting: the same measure for `Cc1cccc(S(=O)(=O)NCCc2[nH]nc(-c3ccc(F)cc3)c2-c2ccncc2)c1` [Example B-1089]: less than 100 nM; for `CC(=O)NC(Cc1ccccc1)c1[nH]nc(-c2ccc(F)cc2)c1-c1ccncc1` (stereo not drawn) [Example B-0803]: 57 nM.
For `CC(C)COC(=O)NC(Cc1ccccc1)c1[nH]nc(-c2ccc(F)cc2)c1-c1ccncc1` (stereo not drawn) [Example B-0858], the IC50 turned out to be 2100 nM.
Regarding `CC(NC(=O)NC(Cc1ccccc1)c1[nH]nc(-c2ccc(F)cc2)c1-c1ccncc1)c1ccccc1` (stereo not drawn) [Example B-0784], the IC50 was 7000 nM.
As for `CC(NC(=O)c1ccc(F)c(C(F)(F)F)c1)c1[nH]nc(-c2ccc(F)cc2)c1-c1ccncc1` (stereo not drawn) [Example B-0689], the half-maximal inhibitory concentration (IC50) came to 14600 nM.
Turning to `CC(C)c1cc(C(C)C)c(C(=O)NCCc2[nH]nc(-c3ccc(F)cc3)c2-c2ccncc2)c(C(C)C)c1` [Example B-1125], the half-inhibitory concentration (IC50) came out at 560 nM.
In the case of `CC(NC(=O)c1cccnc1)c1[nH]nc(-c2ccc(F)cc2)c1-c1ccncc1` (stereo not drawn) [Example B-0554], the IC50 turned out to be 2580 nM.
The same measure, in the same setting: with `COCC(=O)NC(C)c1[nH]nc(-c2ccc(F)cc2)c1-c1ccncc1` (stereo not drawn) [Example B-0543] the figure was 1560 nM; with `O=S(=O)(Cc1ccccc1)NC(Cc1ccccc1)c1[nH]nc(-c2ccc(F)cc2)c1-c1ccncc1` (stereo not drawn) [Example B-0711], 1990 nM.
On the same count and under the same terms, the same measure for `C[C@@H](NS(=O)(=O)c1cccc(Cl)c1)c1[nH]nc(-c2ccc(F)cc2)c1-c1ccncc1` [Example B-0462]: less than 100 nM; for `CC(NS(=O)(=O)c1ccccc1Cl)c1[nH]nc(-c2ccc(F)cc2)c1-c1ccncc1` (stereo not drawn) [Example B-0640]: 360 nM; for `CCCOC(=O)NC(Cc1ccccc1)c1[nH]nc(-c2ccc(F)cc2)c1-c1ccncc1` (stereo not drawn) [Example B-0792]: 1100 nM.
As to `O=S(=O)(C=Cc1ccccc1)NC(Cc1ccccc1)c1[nH]nc(-c2ccc(F)cc2)c1-c1ccncc1` (stereo not drawn) [Example B-0710], the IC50 turned out to be 1990 nM.
On the same count and under the same terms, with `Cc1cc(C)c(S(=O)(=O)NC(C)c2[nH]nc(-c3ccc(F)cc3)c2-c2ccncc2)c(C)c1` (stereo not drawn) [Example B-0616] the figure was 380 nM.

The same assay, now with this note: in vitro P38-alpha kinase; read-out: P38 alpha kinase IC50.
Take `COc1cccc(C(=O)N2CCC(c3[nH]nc(-c4ccc(F)cc4)c3-c3ccncc3)CC2)c1` [Example B-1369]: the IC50 was less than 100 nM.
The same measure, in the same setting: with `O=C(c1ccc(C(F)(F)F)cc1)N1CCC(c2[nH]nc(-c3ccc(F)cc3)c2-c2ccncc2)CC1` [Example B-1390] the figure was less than 100 nM; with `C=CCOC(=O)N1CCC(c2[nH]nc(-c3ccc(F)cc3)c2-c2ccncc2)CC1` [Example B-1362], 3 nM; with `O=S(=O)(NCCCc1[nH]nc(-c2ccc(F)cc2)c1-c1ccncc1)c1cc(Cl)cc(Cl)c1O` [Example B-1241], 40 nM.
With `O=C(c1cccc(F)c1)N1CCC(c2[nH]nc(-c3ccc(F)cc3)c2-c2ccncc2)CC1` [Example B-1393], the half-inhibitory concentration (IC50) turned out to be 3170 nM.
On the same count and under the same terms, the same measure for `O=C(NCCCc1[nH]nc(-c2ccc(F)cc2)c1-c1ccncc1)c1cc(F)cc(F)c1` [Example B-1331]: 4 nM; for `O=S(=O)(c1ccccc1Cl)N1CCC(c2[nH]nc(-c3ccc(F)cc3)c2-c2ccncc2)CC1` [Example B-1457]: 430 nM.
Same read-out and setting: with `O=S(=O)(NCCCc1[nH]nc(-c2ccc(F)cc2)c1-c1ccncc1)c1cccc2ccccc12` [Example B-1246] the figure was 270 nM; with `COc1ccc(Br)cc1S(=O)(=O)NCCCc1[nH]nc(-c2ccc(F)cc2)c1-c1ccncc1` [Example B-1279], less than 100 nM.
The same measure, in the same setting: the same measure for `O=S(=O)(c1ccc(Cl)cc1Cl)N1CCC(c2[nH]nc(-c3ccc(F)cc3)c2-c2ccncc2)CC1` [Example B-1449]: 1610 nM; for `Cc1c(-c2ccncc2)c(-c2ccc(F)cc2)nn1CC(=O)NC[C@@H]1CCCO1` [Example B-2283]: 40 nM.
`Cc1c(-c2ccncc2)c(-c2ccc(F)cc2)nn1CC(=O)NCC(=O)c1ccccc1` [Example B-2317]: the IC50 stood at 1000 nM.
Same read-out and setting: with `C=CCOC(=O)N1CCC(c2[nH]nc(-c3ccc(F)cc3)c2-c2ccncc2)CC1` [Example B-1426] the figure was 190 nM; with `Cc1c(-c2ccncc2)c(-c2ccc(F)cc2)nn1CC(=O)NCCN(C)C` [Example B-2294], 1680 nM.
The same measure, in the same setting: the same measure for `O=C(c1cc(F)cc(F)c1)N1CCC(c2[nH]nc(-c3ccc(F)cc3)c2-c2ccncc2)CC1` [Example B-1415]: 1410 nM; for `O=S(=O)(NCCCc1[nH]nc(-c2ccc(F)cc2)c1-c1ccncc1)c1ccc(Cl)cc1Cl` [Example B-1253]: 150 nM; for `O=S(=O)(NCCCc1[nH]nc(-c2ccc(F)cc2)c1-c1ccncc1)c1ccc2ccccc2c1` [Example B-1245]: 490 nM.
Still for that read-out and setting: with `Cc1noc(C)c1S(=O)(=O)N1CCC(c2[nH]nc(-c3ccc(F)cc3)c2-c2ccncc2)CC1` [Example B-1435] the figure was 1800 nM.
